Laboratory results published in patent US20210205292A1, “INHIBITORS OF CREB-CBP INTERACTION FOR TREATMENT OF LEUKEMIA” (The Board of Trustees of the Leland Stanford Junior …, priority 2016, published 2021).
Entries after “also recorded” stand apart in the source; their conditions may differ.

How the values were obtained:
[1] = tested on: normal bone marrow progenitor cells; assay: Methylcellulose hematopoietic cell colony assay; format: cell-based, human; settings: up to 10 mM, colonies counted on day 14
Protocol: Human bone marrow cells from non-leukemic patients were resuspended in a volume of 0.3 mL of IMDM with 20% FBS at 5×10^5 cells/mL and mixed with varying concentrations of the Compound A (10 pM to 10 mM in 0.1% DMSO) or 0.1% DMSO control. This was added to 3 mL of methylcellulose-containing growth factors IL-3, IL-6, G-CSF, erythropoietin, SCF (Methocult GF-H4434; Stem Cell Technology) and plated. The colonies were observed daily and counted on day 14.

[2] = tested on: CREB target genes in KG-1 and HL-60 cells; assay: RT-PCR of target genes in KG-1 and HL-60 cells; format: cell-based
Protocol: Total RNA was isolated using the Aurum RNA Isolation Mini Kit, and the iScript cDNA Synthesis Kit was used to prepare samples for qPCR (Bio-Rad). PCR was performed on the CFX384 Real-Time System (Bio-Rad) and results were analyzed using the Livak method. For analysis of RNA-seq data as target genes of known transcription factors, a curated list of all human target genes was extracted from the TRANSFAC Pro database.
To assess for potential ‘off-target’ effects of Compound A, the RNA-Seq gene expression profiles of other transcription factors that bind CBP, including Rel, RelA, RelB, Foxo3, Foxo1 and Myb, were analyzed. […] PLoS One. 2011; 6(12):e28712) (FIG. 9, panel E).

[3] = In vivo toxicity in NSG mice not injected with AML cells; parameters: species or system mouse
Protocol: To assess the potential in vivo toxicities of Compound A, four groups of five mice not injected with AML cells were treated with 2.3 mg/kg Compound A intravenously daily, or 20, 40 or 60 mg/kg intraperitoneally (IP) daily for 28 days.

[4] = tested on: Bcl-2, Mcl-1 expression in KG-1 cells; assay: Western blot of anti-apoptotic proteins in KG-1 cells; format: cell-based
Protocol: Cells were lysed in RIPA buffer (Sigma), and the protein concentrations were determined by BCA assay (Thermo Scientific Pierce). Lysates were solubilized in 6×SDS PAGE buffer and […] of protein was loaded into 6-15% SDS PAGE gels, pheresed, and then transferred onto […] PVDF membrane (Millipore). Primary antibodies were applied at a dilution of 1:1000. Anti-Bcl-2, -Bax, -Mcl-1, -Bcl-XL, -Cyclin A and -Cyclin D1 antibodies were purchased from Cell Signaling Technologies. Anti-total acetylated histone and -ac-H3K27 were purchased from Santa Cruz Biotechnologies. Anti-actin and -CREB antibodies were purchased from upstate. Secondary antibodies were used at a 1:2500 dilution and purchased from Thermo Scientific/Pierce. WesternBright ECL was used for image acquisition on Image Lab software (Bio-Rad).
The balance between pro- and anti-apoptotic protein expression contributes to cell fate decisions. CREB regulates the expression of several anti-apoptotic proteins, including Bcl-2, Bcl-XL and Mcl-1. Bcl-2 expression in particular is known to mediate resistance to chemotherapy and influence clinical outcome in a number of cancer types, including AML. The ability of Compound A to cause apoptosis by disrupting the CREB-driven expression of these anti-apoptotic proteins was examined. In HL-60 cells treated with Compound A, apoptosis is induced in a dose- and time-dependent manner. […]

[5] = tested on: KG-1 cells; assay: Cell cycle analysis of synchronized KG-1 cells by flow cytometry; format: cell-based
Protocol: KG-1 cells were synchronized at prometaphase using a modified thymidine plus nocodazole block (Whitfield et al. identification of genes periodically expressed in the human cell cycle and their expression in tumors. Mol Biol Cell. 2002; 13(6):1977-2000). Briefly, KG-1 cells were treated with 2 mM thymidine for 30 h, washed with PBS and released from G1/S block in fresh media for 4 h. The cells were incubated with 300 nM nocodazole (Sigma) for 13 h. Compound A or DMSO was added 3 hours before release. The synchronized cells were washed with PBS and released from the mitotic block in fresh media containing Compound A or DMSO. To analyze DNA content by flow cytometry, cells were harvested, fixed in 70% ice-cold ethanol for at least 1 hour at −20° C., and then incubated in propidium iodide (PI) staining buffer (PBS containing RNase A (50 μg/ml), 0.1% sodium citrate, and PI ([…])) for 30 minutes at RT. Cells were analyzed on a FACS Calibur flow cytoneter (BD Biosciences). Cell-cycle distribution was determined using FlowJo software (TreeStar).
CREB regulates the cell cycle by virtue of transcriptionally regulating the expression of key cell cycle genes. Thus, the effect of Compound A on this aspect of cell function was also examined. […]

[6] = 2.3 mg/kg IV or 20, 40 or 60 mg/kg IP daily, 28 days

Q: For N#Cc1ccc(NC(=O)c2cc3ccccc3cc2O)cc1 [Compound A, N-(4-cyanophenyl)-3-hydroxy-2-naphthamide], which colony formation [1] is on record?
A: no significant decrease in colony formation

Q: And the “Myb-driven gene expression (SP3, FPR1, PRODH, SLC34A2)” value [2]?
A: No changes in gene expression were observed

Q: And the “CREB target gene expression (qPCR)” value ([2]; conditions as for RNA-Seq)?
A: consistently reduced CREB target gene expression

Q: And the “complete blood counts, liver function tests and kidney function tests” value [3, 6]?
A: no difference; also recorded: normal complete blood counts, liver function tests and kidney function tests

Q: And the tissue histology [3, 6]?
A: no evidence of fibrosis or damage; also recorded: no microscopic evidence of vital organ damage

Q: What about the animal body weight ([3]; over 28 days) of the same molecule?
A: no decrease in animal body weight

Q: What about the Bcl-2 expression [4] of the same molecule?
A: decreased Bcl-2 expression

Q: What about the Mcl-1 expression [4] of the same molecule?
A: pronounced decrease in Mcl-1

Q: What about the “% cells in G1-phase” value ([5]; 4 hours following release) of the same molecule?
A: 66.20±1.83%

Q: What about the “% cells in G1-phase” value ([5]; 8 hours following release) of the same molecule?
A: 55.41±0.59%
